These results are taken from US20150374709A1, “TETRA-SUBSTITUTED NDGA DERIVATIVES VIA ETHER BONDS AND CARBAMATE BONDS AND THEIR SYNTHESIS AND PHARMACEUTICAL USE” (ERIMOS PHARMACEUTICALS LLC, priority 2006, published 2015).

The test system of one series is VEGF. Description: ELISA VEGF assay (DFO-treated cells). Format: cell-based, Human. The source says:
ELISA (Enzyme-Linked ImmunoSorbent Assay) VEGF studies were done following manufacturer's instructions using the Endogen® Human VEGF ELISA kit, Catalog No. […] (Pierce Biotechnology, Inc., Rockford, Ill. USA). Hypoxic conditions are created for the cells by treating them with desferrioxamine (DFO), which chelates iron and causes the cells to secrete VEGF into the media. The supernatant (media) was removed and frozen for testing, and the cells were counted with the Trypan Blue assay so that the results can be normalized to cell count. The VEGF is measured with a sandwich ELISA that captures the protein in media on an antibody-coated microplate, and then uses a biotinylated antibody reagent to detect the protein. Results from a standard curve enable the user to quantify the amount of protein in each sample.
For orientation: In an ELISA, binding on a coated surface is turned into a signal by an enzyme label.

Series [1] relates to apoptosis of cells based on DNA fragmentation. In words: TiterTACS DNA fragmentation apoptosis assay. Format: cell-based. The following applies: TiterTACS apoptosis detection. As to the method:
Antiproliferative activity is determined using the TiterTACS® Apoptosis Detection Kit (R&D Systems Inc., Minneapolis, Minn. USA) relating to apoptosis of cells based on DNA fragmentation, and by the ELISA VEGF ([…]) and survivin assays.
In the DNA fragmentation assay, in situ detection of apoptosis is specifically achieved with TiterTACS® 96-well Apoptosis Detection kit, Catalog No. TA600 (R&D Systems, Inc.). The TiterTACS® assay provides quantification of apoptosis in cultured cells without direct counting of labeled cells using colorimetric detection. Cells are treated with the test compounds, left untreated as experimental negative controls, or treated with TACS nuclease as positive controls. TACS nuclease allows positive controls to be generated for each experimental system: a brief treatment of cells with the TACS nuclease prior to labeling generates DNA breaks in every cell, providing an appropriate positive control specific for the system under study. The TdT enzyme that catalyzes the addition of dNTPs to DNA fragments allows for colorimetric detection of at 450 nm by using a streptavidin-HRP solution followed by the TACS-Sapphire substrate. A high absorbance at 450 nm is indicative of apoptosis in the cells. Treated cells are compared to untreated cells and to nuclease-cleaved cells to assess the extent of apoptosis.

In a further series the test system is A549 (lung carcinoma). In words: MTS cell viability assay, A549. The following applies: Homo sapiens. It counts as cell-based. The source says:
(§1) Studies performed regarding cytotoxicity included the well-known MTS, Trypan Blue and MTT protocols. The MTS studies were done using the CellTiter 96®AQueous One Solution Cell Proliferation Assay (Promega Corporation, Madison, Wis. USA). Metabolically active, namely viable, cells turn MTS, a tetrazolium compound (3-(4,5-dimethylthiazol-2-yl)-5-(3-carboxymethoxyphenyl)-2-(4-sulfophenyl)-2H-tetrazolium, inner salt) into colored formazan, which is soluble in tissue culture medium. The measurement of the absorbance of the formazan is read at 490 nm. The ready to use reagent is added directly to the cells in media in 96-well plates, incubated 1-4 hours and the results are recorded by the plate reader. The IC50 is estimated by graphing the gathered data. The IC50 is the concentration of the tested material that inhibits 50% of growth or viability of the tested material compared to a control.
(§2) Three cell lines obtained from ATCC and maintained as directed by ATCC were tested: HeLa (cervical adenocarcinoma), A549 (lung carcinoma), and COS-7 (SV40 transformed monkey kidney). Studies of these cell lines are considered to be indicative of the effect of tested substances on mammalian, including human, diseases.
(§3) All compounds were dissolved in DMSO and DMSO is used as the placebo. The samples were first dissolved into 10 mM dilutions in DMSO and then diluted further to 5, 1, 0.5, 0.1, 0.05, and 0.01 mM solutions. These solutions were added to the media at a 1% concentration (1 μl to 100 μl media) to treat the cells with 100, 50, 10, 5, 1, 0.5, and 0.1 μM of the compound. […] Solutions were checked before use for precipitation, especially the 10 mM solutions. If there was precipitation, they were warmed 65° C. and added to warmed media.
(§4) Wells on a 96-well plate were seeded with 1.5-8×10^4 cells in 100 μl media and incubated overnight. The outside wells of the plate were filled with 200 μl sterile, deionized (DI) water to curb media evaporation. After 24 hours, test chemicals were prepared in media at a concentration of 1% media volume. The test sample media were added, mixing with pipette before adding 100 μl per well. Media was added to the “Media Only” wells. The well plate and its contents were incubated for 24-72 hours, depending on the study conducted. On the thy of the MTS assay, the MTS reagent was removed from the refrigerator and brought to room temperature. Using the multichannel pipette, 20 μl of the MTS reagent was added to each well and incubated for one to four hours. The plate was read at 490 nm with a reference wavelength of 690 nm after one hour in the incubator thereafter until the blank wells were at about 0.2 OD. The results were then scanned into a Microsoft® Excel® template designed to perform all necessary calculations whim data are entered. The data were checked for statistical errors; data points that are within 10% of the mean of the data points for that group were included. The average of the blanks (“Media Only”) were subtracted and the data were inserted into a chart that represents growth response, treated/untreated.
Background: Tetrazolium dyes change colour on reduction, which living cells bring about.

Series [2] relates to HeLa (cervical adenocarcinoma). In words: MTS cell viability assay, HeLa. Format: cell-based. The following applies: Homo sapiens, HeLa, read-out: HeLa IC50.
From the text: as §1, §2, §3, §4

For the next series, the system named is survivin. In words: ELISA survivin assay (cell lysates). It counts as cell-based, Human. The source says: Survivin is an inhibitor of apoptosis that is abundantly expressed in many human cancers, but not in normal adult human tissue, and is considered a possible modulator of the terminal effector phase of cell death/survival. Survivin is expressed in G2-M in a cell cycle-dependent manner, binding directly to mitotic spindle microtubules. […] Phosphorylated survivin acts on the caspase pathway to suppress the formation of caspase-3 and caspase-9, thereby inhibiting apoptosis. Thus, compounds that reduce the expression of survivin will be expected to increase the rate of apoptosis and cell death.
Effects of the tested compounds on survivin were studied following manufacturer's instructions using the Surveyor™ IC Human Total Survivin Immunoassay, Catalog No. SUV647 (R&D Systems, Inc.). Cell lysates were analyzed for survivin protein content. The kit includes a plate coated with an antibody specific for survivin and a biotinylated antibody reagent that recognizes survivin bound to the plate. The plate is read on a plate reader set at 450 nm and corrected at 540 nm. A protein assay according to the Bradford method (Bradford, M. 1976, Anal Biochem 72: 248-254) was used to quantify and normalize the samples according to total protein content. Results from a standard curve enable the user to quantify the amount of survivin protein in each sample.

Series [3] in a line: Caco-2 monolayer bidirectional permeability. Format: in vitro ADME, human. The following applies: human, Caco-2, pH 7.4; control at 5 μM, 90 minutes, duplicate monolayers. The method, then:
(§5) Permeability studies were conducted by an outside contractor on behalf of the assignee of the present invention and application to determine the permeability of Compound A through Caco-2 monolayers. An important factor of oral bioavailability is the ability of e compound to be absorbed in the small intestine. Measurement of drug apparent permeability (Papp) through cell monolayers is well correlated with human intestinal absorption, and several mammalian cell lines, including Caco-2, LLC-PK1 and MDCK, are appropriate for this measurement (Artursson, P. et al., Correlation between oral drug absorption in humans and apparent drug permeability coefficients in human intestinal epithelial (Caco-2) cells. Biochem Biophys Res Comm 175:880-885 (1991); Stewart. B. H., et al., Comparison of intestinal permeabilities in multiple in vitro and in situ models: relationship to absorption in humans. Pharm Res 12:693 (1995)). P-Glycoprotein (P-gp, encoded by MDR1) is a member of the ABC transporter super family and is expressed in the human intestine, liver and other tissues. Intestinal expression of P-gp may affect the oral bioavailability of drug molecules that are substrates for this transporter. Interaction with P-gp can be studied using direct assays of drug transport in polarized cell systems such as Caco-2 cell monolayers, and human P-gp cDNA-expressing LLC-PK1 and MDCK cell monolayers. Caco-2 cells (human adenocarcinoma colonic cell line Caco-2, ATCC Cat. No. […] The cells were cultured for 21-25 days with media replacement every 3-4 days. Monolayer integrity was evaluated by pre-experimental trans-epithelial electrical resistance (TEER) measurements and post-experimental lucifer yellow A to B flux determinations. […] Receiver solution was prepared by adding 1% DMSO to transport buffer. The test solution was of Compound A in DMSO in transport buffer at a final DMSO concentration of 1%. […] The donor and receiver solutions were added to the apical or basolateral chambers of the monolayers (depending on the direction of transport to be measured). The monolayers were incubated on an orbital shaker (50 rpm) at 37° C., with ambient humidity and CO2. After 90 minutes, samples from the donor and receiver chambers were removed for analysis. […] Duplicate monolayers were used for each incubation. Samples were analyzed by LC/MS/MS using peak area ratios to an internal standard. Test article concentrations were calculated based on the peak area ratios obtained for appropriate dilutions of the donor solution containing the test article at the nominal concentration in transport buffer. Samples were diluted as appropriate to ensure that the response was within the linear range of the mass spec detector. Comparator and control samples were analyzed by liquid scintillation counting. Lucifer yellow concentrations were determined using a fluorescence plate reader.
(Caco-2 monolayers are a common model of the intestinal barrier.)

For another series, the system named is Caco-2 cell monolayers. Description: Caco-2 monolayer bidirectional permeability. It counts as in vitro ADME, human. The method, then:
as §5

Where [4] appears, read: A549, MTS assay, read-out: A549 IC50.
The mark [5] stands for this setting: read-out: Survivin IC50; survivin protein in cell lysates, normalized to total protein.

One may read the pIC50 as the IC50 on a negative log10 scale, so that one unit is a factor of ten. The term Papp B→A denotes how fast a substance crosses the layer from the basolateral side.

Each structure is given as a SMILES string. pIC50: −log10 of the molar value. Several values for one entry are separate records, joined by “and”; a condition that tells them apart may be missing. Identical values can stand only once. Counter-ions that a name gives are not always drawn. Like-named read-outs stand apart in the source and are kept apart here.

Take `C[C@H](Cc1ccc(OCCCCN2CCCCC2)c(OCCCCN2CCCCC2)c1)[C@@H](C)Cc1ccc(OCCCCN2CCCCC2)c(OCCCCN2CCCCC2)c1` [Compound D, 1,4-bis{3,4-bis[4-(N-piperidino)butoxyl]phenyl}-2,3-dimethyl-(2R,3S)-butane tetrakis-hydrochloride salt]: the pIC50 in the series with VEGF (VEGF released into media by DFO-treated cells, normalized to cell count; read-out: VEGF IC50) was ~5.05 and 5.05; with A549 (lung carcinoma) (setting [4]) it was 5.30 to 6.00; in series [2] (MTS assay), 5.00 to 5.30; in the series with survivin (survivin protein in cell lysates, normalized to total protein; read-out: Survivin IC50), ~5.40 and 5.40. Besides, the DNA fragmentation entry in series [1] is given as “Positive”.
In the case of `C[C@H](Cc1ccc(OCCCCN2CCN(C)CC2)c(OCCCCN2CCN(C)CC2)c1)[C@@H](C)Cc1ccc(OCCCCN2CCN(C)CC2)c(OCCCCN2CCN(C)CC2)c1` [Compound O, 1,4-bis{3,4-bis[4-(N-methyl-piperazino-N′-yl)butoxyl]phenyl}-2,3-dimethyl-(2R,3S)-butane octa-hydrochloride], the pIC50 in the series on VEGF (read-out: VEGF IC50; VEGF released into media by DFO-treated cells, normalized to cell count) is 4.74; in the series on A549 (lung carcinoma) (A549, read-out: A549 IC50) it was 5.05 to 5.10; in series [2] it was 4.52 to 5.00; with survivin (setting [5]) it was 4.85. Moreover, the DNA fragmentation result in series [1] is given as “Positive”.
Regarding `C[C@H](Cc1ccc(OCCN(C)C)c(OCCN(C)C)c1)[C@@H](C)Cc1ccc(OCCN(C)C)c(OCCN(C)C)c1` [Compound G, 1,4-bis{3,4-bis(2-(N,N′-dimethylamino)-ethoxy)phenyl}-2,3-dimethyl-(2R,3S)-butane], the pIC50 is 4.60 in the series with VEGF (read-out: VEGF IC50; VEGF released into media by DFO-treated cells, normalized to cell count; listed as G in H2O); 4.70 to 4.82 with A549 (lung carcinoma) (A549, read-out: A549 IC50); 4.70 to 4.82 in series [2].
As for `C[C@H](Cc1ccc(OCCN(C)C)c(OCCN(C)C)c1)[C@@H](C)Cc1ccc(OCCN(C)C)c(OCCN(C)C)c1` [Compound H, 1,4-bis{3,4-bis(2-(N,N′-dimethylamino)-ethoxy)phenyl}-2,3-dimethyl-(2R,3S)-butane tetrakishydrochloride salt], the negative logarithm of the IC50 (pIC50) in the series with VEGF (read-out: VEGF IC50; VEGF released into media by DFO-treated cells, normalized to cell count; listed as H in H2O) is 4.64; with survivin (setting [5]), 5.00. In addition, the DNA fragmentation entry in series [1] is “Positive”.
For `C[C@H](Cc1ccc(OCCF)c(OCCF)c1)[C@@H](C)Cc1ccc(OCCF)c(OCCF)c1` [Compound K, 1,4-bis[3,4-bis(2-fluoro-ethoxyl)phenyl]-2,3-dimethyl-(2R,3S)-butane], the pIC50 (with A549 (lung carcinoma) (setting [4]); in series [2] (MTS assay)) was less than 4.00 in each case.
In series [3], `C[C@H]1O[C@@H](O[C@H]2[C@@H](O)C[C@H](O[C@H]3[C@@H](O)C[C@H](O[C@H]4CC[C@@]5(C)[C@H](CC[C@@H]6[C@@H]5C[C@@H](O)[C@]5(C)[C@@H](C7=CC(=O)OC7)CC[C@]65O)C4)O[C@@H]3C)O[C@@H]2C)C[C@H](O)[C@@H]1O` [digoxin, reference compound] yielded a Papp B→A at 90 min of 12.4 ×10⁻⁶ cm/s. Moreover, the “Papp mean A to B” value with Caco-2 cell monolayers (comparators/control at the concentration in the row (5 or 50 μM), 90 minutes, duplicate monolayers) worked out at 2.28 ×10⁻⁶ cm/s. Moreover, the “Mass balance mean A to B” value with Caco-2 cell monolayers (comparators/control, 90 minutes) came to 73%. Moreover, the “Mass balance mean B to A” value in the series on Caco-2 cell monolayers (control, 90 minutes) turned out to be 79%.
Turning to `OC[C@@H](O)[C@@H](O)[C@H](O)[C@H](O)CO` [mannitol, reference compound], the “Mass balance mean A to B” value with Caco-2 cell monolayers (human, Caco-2, 90 min, pH 7.4) was 96%.
In the case of `CC(C)NCC(O)COc1cccc2ccccc12` (stereo not drawn) [propranolol, reference compound], the “Mass balance mean A to B” value in the series with Caco-2 cell monolayers (human, Caco-2, 90 min, pH 7.4) was determined as 71%.
